A short description of data set [1]: Solubility of CBD in ethanol:water mixtures.
The nature of data set [2]: Capture of target molecule from solution by insoluble cross-linked cyclodextrin polymer (batch slurry, supernatant measured after filtration). Conditions: Example 9: 2 mg/mL CBD in 1:1 ethanol:water, 10:1 polymer:CBD. On the procedure:
A standard protocol was followed in all Examples with the variances from the standard protocol as described in each Example. The standard protocol included a plurality of steps. A mass of CBD was dissolved in ethanol to form a stock solution. A reference sample of the stock solution was diluted with ethanol to obtain a target CBD or other target molecule concentration for a reference measurement. A reaction sample was taken from the remaining stock solution. A cross-linked polysaccharide was combined with the reaction sample in a ratio relative to the CBD or other target molecule concentration present in the reaction sample (by mass) as specified in Examples. The cross-linked polymer is HDI-linked cyclodextrin prepared with a ratio of 8:1 HDI to cyclodextrin.
Water is combined with the reaction sample until the reaction sample reaches a target CBD or other target molecule concentration, and a target ethanol to water ratio. The reaction mixture including the water is filtered at a cutoff size of between 75 μm to 4,000 μm aperture size, or exposed to a magnetic field with a neodymium magnet through the wall of a flask, to retrieve the cross-linked polymer bound with CBD or other target molecule concentration. Once retrieved, the cross-linked polymer is flushed with a dissociation solvent for dissolving the target molecule. […]

As to `C=C(C)[C@@H]1CCC(C)=C[C@H]1c1c(O)cc(CCCCC)cc1O` [CBD, cannabidiol], the “solubility of CBD” value in data set [1] (40:60 EtOH:H2O, 2 mg/mL CBD) is on record as “not fully dissolved”; in data set [1] (45:56 EtOH:H2O, 2 mg/mL CBD) it was “cloudy”; in data set [1] (50:50 EtOH:H2O, EtOH added first then H2O), “dissolves”; in data set [1] (Example 13: 6 mg/mL in 1:1 EtOH:H2O with sonication and heating) it was “did not dissolve”. In data set [1] (Example 17: CBD in 3:7 EtOH:H2O), the “percent of the CBD not in solution” value is reported as “Ten”. For the same compound, in data set [2], the “time to capture plateau” value is given as “about 5 minutes”.

Values taken from patent US12678472B2, “Method for selective recovery of hydrophobic compounds” (priority 2019, dated 2026).
